Laboratory results reported in PubChem BioAssay AID330 (DTP/NCI, 2004).
Values joined by “and” are separate entries in the source; they are usually repeats but may differ in a detail not shown here. Equal entries are not always repeated. Toxic doses and inconclusive results are not listed.

System: P388 leukemia ip, CD2F1 mice, survival T/C
Assay: NCI In Vivo Anticancer Drug Screen. Data for tumor model P388 Leukemia (intraperitoneal) in CD2F1 (CDF1) mice
Conditions: endpoint: median survival time, higher = longer survival
Procedure, shortened: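 Mice carrying the transplanted tumor received test compound or vehicle. Survival was recorded in each group, and the value is the treated-group measurement divided by that of the vehicle-treated control group.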

[1] = dose: 60.0 mg/kg/injection, schedule: Q01DX005 (ip), vehicle: saline with Tween-80
[2] = dose: 120.0 mg/kg/injection, schedule: Q01DX005 (ip), vehicle: saline with Tween-80
[3] = dose: 240.0 mg/kg/injection, schedule: Q01DX005 (ip), vehicle: saline with Tween-80
[4] = dose: 50.0 mg/kg/injection, schedule: Q01DX005 (ip), vehicle: saline with Tween-80
[5] = dose: 100.0 mg/kg/injection, schedule: Q01DX005 (ip), vehicle: saline with Tween-80
[6] = dose: 200.0 mg/kg/injection, schedule: Q01DX005 (ip), vehicle: saline with Tween-80
[7] = dose: 50.0 mg/kg/injection, schedule: Q01DX009 (ip), vehicle: Klucel (hydroxypropylcellulose) (HPC)
[8] = dose: 100.0 mg/kg/injection, schedule: Q01DX009 (ip), vehicle: Klucel (hydroxypropylcellulose) (HPC)
[9] = dose: 200.0 mg/kg/injection, schedule: Q01DX009 (ip), vehicle: Klucel (hydroxypropylcellulose) (HPC)
[10] = dose: 25.0 mg/kg/injection, schedule: Q01DX009 (ip), vehicle: Klucel (hydroxypropylcellulose) (HPC)
[11] = dose: 12.5 mg/kg/injection, schedule: Q01DX005 (ip), vehicle: saline with Tween-80

In the case of `Cc1cc2nc3ccccc3[nH]c2c2ccc(=O)cc12`, the T/C (dose: 100.0 mg/kg/injection, schedule: Q04DX002 (ip), vehicle: saline with Tween-80) was 99 % of control, the T/C (dose: 200.0 mg/kg/injection, schedule: Q04DX002 (ip), vehicle: saline with Tween-80) was 98 % of control and the T/C (dose: 400.0 mg/kg/injection, schedule: Q04DX002 (ip), vehicle: saline with Tween-80) was 94 % of control.

With `O=C(/C=C/c1ccccc1)Cc1nc2nnc(NC(=O)Nc3ccc(Cl)cc3)n2[nH]c1=O` the T/C [1] was 99 % of control, the T/C [2] was 94 % of control and the T/C [3] was 102 % of control.

In the case of `Nc1ccc(S(=O)(=O)Nc2c(N)[nH]c(=S)[nH]c2=O)cc1`, the T/C (dose: 15.0 mg/kg/injection, schedule: Q01DX005 (ip), vehicle: Klucel (hydroxypropylcellulose) (HPC)) was 97 % of control, the T/C (dose: 15.0 mg/kg/injection, schedule: Q01DX005 (ip), vehicle: saline with Tween-80) was 115 % of control and the T/C (dose: 30.0 mg/kg/injection, schedule: Q01DX005 (ip), vehicle: Klucel (hydroxypropylcellulose) (HPC)) was 97 % of control. For the same molecule, the T/C (dose: 30.0 mg/kg/injection, schedule: Q01DX005 (ip), vehicle: saline with Tween-80) was 105 % of control, the T/C (dose: 60.0 mg/kg/injection, schedule: Q01DX005 (ip), vehicle: Klucel (hydroxypropylcellulose) (HPC)) was 92 % of control and the T/C [1] was 98 % of control. The T/C (dose: 120.0 mg/kg/injection, schedule: Q01DX005 (ip), vehicle: Klucel (hydroxypropylcellulose) (HPC)) was 100 % of control and the T/C [2] was 100 % of control.

In the case of `Cc1ccc(Cl)cc1S`, the T/C (dose: 50.0 mg/kg/injection, schedule: Q04DX003 (ip), vehicle: saline) was 95 % of control and the T/C (dose: 100.0 mg/kg/injection, schedule: Q04DX003 (ip), vehicle: saline) was 95 % of control.

`Clc1ccc2nc3c(c(N4CCCCC4)c2c1)CCCC3` was tested, and the T/C [4] was 105 % of control, the T/C [5] was 105 % of control and the T/C [6] was 100 % of control.

For `COc1ccc(C2=CC(OO)(C(C)(C)C)C(=O)C(C(C)(C)C)=C2)cc1.Oc1ccccc1C=NCCC[N-]CCCN=Cc1ccccc1O.[Co]` (stereo unspecified), the T/C [7] was 101 % of control, the T/C [8] was 101 % of control and the T/C [9] was 100 % of control.

`C[C@]12CCC[C@@H]3C[C@@]31C[C@@H]([C@@]1(C)CO1)CC2` was tested, and the T/C [10] was 98 % of control and 91 % of control, the T/C [7] was 102 % of control and 106 % of control and the T/C [8] was 102 % of control and 104 % of control and 88 % of control. The T/C [9] was 100 % of control and 120 % of control.

In the case of `CCOCCOCCOC(C)OC(C)Cc1ccc2c(c1)OCO2` (stereo unspecified), the T/C [4] was 106 % of control, the T/C [5] was 95 % of control and the T/C [6] was 112 % of control.

In the case of `CCCCN=NNCCCC`, the T/C [11] was 110 % of control and the T/C [4] was 151 % of control.

`O=P1(NCCCNP2(=O)OC(CCl)=NC2c2ccccc2Cl)OC(CCl)=NC1c1ccccc1Cl` (stereo unspecified) was tested, and the T/C (dose: 60.0 mg/kg/injection, schedule: Q01DX005 (ip), vehicle: saline) was 93 % of control, the T/C (dose: 120.0 mg/kg/injection, schedule: Q01DX005 (ip), vehicle: saline) was 98 % of control and the T/C (dose: 240.0 mg/kg/injection, schedule: Q01DX005 (ip), vehicle: saline) was 103 % of control.

For `CCn1c2ccccc2c2cc(/C=N/N=C/c3ccc4c(c3)c3ccccc3n4CC)ccc21`, the T/C (dose: 3.12 mg/kg/injection, schedule: Q01DX005 (ip), vehicle: saline with Tween-80) was 93 % of control, the T/C (dose: 6.25 mg/kg/injection, schedule: Q01DX005 (ip), vehicle: saline with Tween-80) was 90 % of control and the T/C [11] was 88 % of control.

With `[I][Pt+2][I].[NH-]CC[NH-]` the T/C (dose: 2.75 mg/kg/injection, schedule: Q01DX009 (ip), vehicle: Klucel (hydroxypropylcellulose) (HPC)) was 87 % of control, the T/C (dose: 5.5 mg/kg/injection, schedule: Q01DX009 (ip), vehicle: Klucel (hydroxypropylcellulose) (HPC)) was 117 % of control and the T/C (dose: 11.0 mg/kg/injection, schedule: Q01DX009 (ip), vehicle: Klucel (hydroxypropylcellulose) (HPC)) was 109 % of control. For the same molecule, the T/C (dose: 22.0 mg/kg/injection, schedule: Q01DX009 (ip), vehicle: Klucel (hydroxypropylcellulose) (HPC)) was 111 % of control.

With `C=CC1(C)OC(=O)c2cc(C)c(OC)cc21` (stereo unspecified) the T/C (dose: 50.0 mg/kg/injection, schedule: Q01DX001 (ip), vehicle: saline with Tween-80) was 100 % of control, the T/C (dose: 100.0 mg/kg/injection, schedule: Q01DX001 (ip), vehicle: saline with Tween-80) was 100 % of control and the T/C (dose: 200.0 mg/kg/injection, schedule: Q01DX001 (ip), vehicle: saline with Tween-80) was 95 % of control. For the same molecule, the T/C (dose: 400.0 mg/kg/injection, schedule: Q01DX001 (ip), vehicle: saline with Tween-80) was 94 % of control.

`CCOC(=O)c1ccc(NC(=O)Nc2n[nH]c(NC(=O)Nc3ccc(C(=O)OCC)cc3)n2)cc1` was tested, and the T/C (dose: 12.5 mg/kg/injection, schedule: Q01DX009 (ip), vehicle: distilled water + Tween-80) was 95 % of control, the T/C (dose: 25.0 mg/kg/injection, schedule: Q01DX009 (ip), vehicle: distilled water + Tween-80) was 114 % of control and the T/C (dose: 50.0 mg/kg/injection, schedule: Q01DX009 (ip), vehicle: distilled water + Tween-80) was 89 % of control. For the same molecule, the T/C (dose: 100.0 mg/kg/injection, schedule: Q01DX009 (ip), vehicle: distilled water + Tween-80) was 88 % of control.

`COc1ccc(C(CCOS(=O)(=O)c2ccc(Br)cc2)(c2ccc(OC)cc2)c2ccc(OC)cc2)cc1` was tested, and the T/C [1] was 93 % of control, the T/C [2] was 93 % of control and the T/C [3] was 87 % of control.

In the case of `NC(=S)c1cccc(C=Nc2ccccc2)n1`, the T/C (dose: 12.5 mg/kg/injection, schedule: Q04DX003 (ip), vehicle: Klucel (hydroxypropylcellulose) (HPC)) was 106 % of control, the T/C (dose: 25.0 mg/kg/injection, schedule: Q04DX003 (ip), vehicle: Klucel (hydroxypropylcellulose) (HPC)) was 105 % of control and the T/C (dose: 50.0 mg/kg/injection, schedule: Q04DX003 (ip), vehicle: Klucel (hydroxypropylcellulose) (HPC)) was 97 % of control. The T/C (dose: 100.0 mg/kg/injection, schedule: Q04DX003 (ip), vehicle: Klucel (hydroxypropylcellulose) (HPC)) was 91 % of control.

`c1ccc(C2=NN=C(c3ccccc3)N(c3ccccc3)N2)cc1` was tested, and the T/C [4] was 105 % of control, the T/C [5] was 97 % of control and the T/C [6] was 97 % of control.

In the case of `NC(=O)c1cnn(CCOS(=O)(=O)O)c1N`, the T/C (dose: 12.5 mg/kg/injection, schedule: Q01DX009 (ip), vehicle: water) was 103 % of control, the T/C (dose: 25.0 mg/kg/injection, schedule: Q01DX009 (ip), vehicle: water) was 101 % of control and the T/C (dose: 50.0 mg/kg/injection, schedule: Q01DX009 (ip), vehicle: water) was 108 % of control. The T/C (dose: 100.0 mg/kg/injection, schedule: Q01DX009 (ip), vehicle: water) was 107 % of control and the T/C (dose: 200.0 mg/kg/injection, schedule: Q01DX009 (ip), vehicle: water) was 103 % of control.

For `Clc1cnc2n[se]nc2c1`, the T/C (dose: 25.0 mg/kg/injection, schedule: Q04DX002 (ip), vehicle: saline) was 106 % of control, the T/C (dose: 50.0 mg/kg/injection, schedule: Q04DX002 (ip), vehicle: saline) was 116 % of control and the T/C (dose: 100.0 mg/kg/injection, schedule: Q04DX002 (ip), vehicle: saline) was 105 % of control and 114 % of control.

`CCCCN=C(N)N/N=C(\C)c1ccc2c(c1)Cc1ccccc1-2` was tested, and the T/C (dose: 25.0 mg/kg/injection, schedule: Q04DX002 (ip), vehicle: saline with Tween-80) was 104 % of control.

For `CNCC(O)CC12CCC(c3ccccc31)c1ccccc12` (stereo unspecified), the T/C [7] was 104 % of control and the T/C [8] was 106 % of control.

`CN(C)C(=S)/N=C1/SCS(=O)(=O)N1c1ccccc1` was tested, and the T/C (dose: 50.0 mg/kg/injection, schedule: Q04DX003 (ip), vehicle: saline with Tween-80) was 98 % of control, the T/C (dose: 100.0 mg/kg/injection, schedule: Q04DX003 (ip), vehicle: saline with Tween-80) was 104 % of control and the T/C (dose: 200.0 mg/kg/injection, schedule: Q04DX003 (ip), vehicle: saline with Tween-80) was 95 % of control.

`CCNC(=S)N/N=C(/c1ccccc1)c1ccccn1` was tested, and the T/C [7] was 105 % of control, the T/C [8] was 95 % of control and the T/C [9] was 115 % of control.

With `COc1c(CC(O)C(C)(C)O)c(=O)n(C)c2ccccc12` (stereo unspecified) the T/C (dose: 4.5 mg/kg/injection, schedule: Q01DX005 (ip), vehicle: Klucel (hydroxypropylcellulose) (HPC)) was 102 % of control, the T/C (dose: 9.0 mg/kg/injection, schedule: Q01DX005 (ip), vehicle: Klucel (hydroxypropylcellulose) (HPC)) was 98 % of control and the T/C (dose: 18.0 mg/kg/injection, schedule: Q01DX005 (ip), vehicle: Klucel (hydroxypropylcellulose) (HPC)) was 90 % of control. The T/C (dose: 36.0 mg/kg/injection, schedule: Q01DX005 (ip), vehicle: Klucel (hydroxypropylcellulose) (HPC)) was 93 % of control.

For `Nc1c(/C=C/c2cc3cc(C4=NCCN4)ccc3o2)[nH]c2cc(C3=NCCN3)ccc12`, the T/C (dose: 50.0 mg/kg/injection, schedule: Q01DX005 (ip), vehicle: Klucel (hydroxypropylcellulose) (HPC)) was 245 % of control and the T/C (dose: 100.0 mg/kg/injection, schedule: Q01DX005 (ip), vehicle: Klucel (hydroxypropylcellulose) (HPC)) was 110 % of control and 227 % of control.

`O=C1C(Cl)=C(NCCO)C(=O)c2ccccc21` was tested, and the T/C [10] was 101 % of control, the T/C [7] was 106 % of control and the T/C [8] was 112 % of control. For the same molecule, the T/C [9] was 102 % of control.
